Source: US11678665B2, “Pyrazine-4-carbamate or -urea derivatives as herbicides” (Syngenta Participations AG, priority 2017, dated 2023)

Assays:
Type in all cases: in vivo
Setaria faberi (SETFA) [1] = experiment: Pre-emergence herbicidal activity, SETFA; design: key: 5=total damage to plant; 0=no damage to plant; conditions: 1000 g/ha, sprayed pre-emergence, evaluated after 13 days, damage score 0-5
Experimental: (§1) Seeds of a variety of test species were sown in standard soil in pots: Triticum aestivium (TRZAW), Avena fatua (AVEFA), Alopecurus myosuroides (ALOMY), Echinochloa crus-galli (ECHCG), Lolium perenne (LOLPE), and Setaria faberi (SETFA). After cultivation for one day (pre-emergence) under controlled conditions in a glasshouse (at 24/16° C., day/night; 14 hours light; 65% humidity), the plants were sprayed with an aqueous spray solution derived from the formulation of the technical active ingredient in acetone/water (50:50) solution containing 0.5% Tween 20 (polyoxyethelyene sorbitan monolaurate, CAS RN 9005-64-5). The test plants were then grown in a glasshouse under controlled conditions (at 24/16° C., day/night; 14 hours light; 65% humidity) and watered twice daily. After 13 days, the test was evaluated (5=total damage to plant; 0=no damage to plant).

[2] = system: Triticum aestivium (TRZAW); experiment: Post-emergence herbicidal activity, TRZAW; design: key: 5=total damage to plant; 0=no damage to plant; conditions: 1000 g/ha, sprayed post-emergence (8 days cultivation), evaluated after 13 days, damage score 0-5
Experimental: (§2) Seeds of a variety of test species were sown in standard soil in pots: Triticum aestivium (TRZAW), Avena fatua (AVEFA), Alopecurus myosuroides (ALOMY), Echinochloa crus-galli (ECHCG), Lolium perenne (LOLPE), and Setaria faberi (SETFA). After 8 days cultivation (post-emergence) under controlled conditions in a glasshouse (at 24/16° C., day/night; 14 hours light; 65% humidity), the plants were sprayed with an aqueous spray solution derived from the formulation of the technical active ingredient in acetone/water (50:50) solution containing 0.5% Tween 20 (polyoxyethelyene sorbitan monolaurate, CAS RN 9005-64-5). The test plants were then grown in a glasshouse under controlled conditions (at 24/16° C., day/night; 14 hours light; 65% humidity) and watered twice daily. After 13 days, the test was evaluated (5=total damage to plant; 0=no damage to plant).

Setaria faberi (SETFA) [3] = experiment: Post-emergence herbicidal activity, SETFA; design: key: 5=total damage to plant; 0=no damage to plant; conditions: 1000 g/ha, sprayed post-emergence (8 days cultivation), evaluated after 13 days, damage score 0-5
Experimental: as §2

[4] = system: Echinochloa crus-galli (ECHCG); experiment: Post-emergence herbicidal activity, ECHCG; design: key: 5=total damage to plant; 0=no damage to plant; conditions: 1000 g/ha, sprayed post-emergence (8 days cultivation), evaluated after 13 days, damage score 0-5
Experimental: as §2

[5] = system: Echinochloa crus-galli (ECHCG); experiment: Pre-emergence herbicidal activity, ECHCG; conditions: 1000 g/ha, sprayed pre-emergence, evaluated after 13 days, damage score 0-5
Experimental: as §1

[6] = system: Triticum aestivium (TRZAW); experiment: Pre-emergence herbicidal activity, TRZAW; design: key: 5=total damage to plant; 0=no damage to plant; conditions: 1000 g/ha, sprayed pre-emergence, evaluated after 13 days, damage score 0-5
Experimental: as §1

Avena fatua (AVEFA) [7] = experiment: Pre-emergence herbicidal activity, AVEFA; design: key: 5=total damage to plant; 0=no damage to plant; conditions: 1000 g/ha, sprayed pre-emergence, evaluated after 13 days, damage score 0-5
Experimental: as §1

Lolium perenne (LOLPE) [8] = experiment: Post-emergence herbicidal activity, LOLPE; design: key: 5=total damage to plant; 0=no damage to plant; conditions: 1000 g/ha, sprayed post-emergence (8 days cultivation), evaluated after 13 days, damage score 0-5
Experimental: as §2

[9] = system: Alopecurus myosuroides (ALOMY); experiment: Post-emergence herbicidal activity, ALOMY; design: key: 5=total damage to plant; 0=no damage to plant; conditions: 1000 g/ha, sprayed post-emergence (8 days cultivation), evaluated after 13 days, damage score 0-5
Experimental: as §2

Lolium perenne (LOLPE) [10] = experiment: Pre-emergence herbicidal activity, LOLPE; design: key: 5=total damage to plant; 0=no damage to plant; conditions: 1000 g/ha, sprayed pre-emergence, evaluated after 13 days, damage score 0-5
Experimental: as §1

Avena fatua (AVEFA) [11] = experiment: Post-emergence herbicidal activity, AVEFA; conditions: 1000 g/ha, sprayed post-emergence (8 days cultivation), evaluated after 13 days, damage score 0-5
Experimental: as §2

[12] = system: Alopecurus myosuroides (ALOMY); experiment: Pre-emergence herbicidal activity, ALOMY; design: key: 5=total damage to plant; 0=no damage to plant; conditions: 1000 g/ha, sprayed pre-emergence, evaluated after 13 days, damage score 0-5
Experimental: as §1

| SMILES | Control of weed species after pre-emergence application: SETFA (Setaria faberi (SETFA) [1]) | Control of weed species after post-emergence application: TRAZW [2] | Control of weed species after post-emergence application: SETFA (Setaria faberi (SETFA) [3]) | Control of weed species after post-emergence application: ECHCG [4] | Control of weed species after pre-emergence application: ECHCG [5] | Control of weed species after pre-emergence application: TRAZW [6] | Control of weed species after pre-emergence application: AVEFA (Avena fatua (AVEFA) [7]) | Control of weed species after post-emergence application: LOLPE (Lolium perenne (LOLPE) [8]) | Control of weed species after post-emergence application: ALOMY [9] | Control of weed species after pre-emergence application: LOLPE (Lolium perenne (LOLPE) [10]) | Control of weed species after post-emergence application: AVEFA (Avena fatua (AVEFA) [11]) | Control of weed species after pre-emergence application: ALOMY [12] |
| --- | --- | --- | --- | --- | --- | --- | --- | --- | --- | --- | --- | --- |
| CCC(=O)N(C(=O)CC)c1ncc(-c2cncc(F)c2)nc1C(F)(F)F [Compound I1] | 3 | 0 | 4 | 4 | 2 | 0 | 1 | 1 | 0 | 1 | 2 | 0 |
| CCC(=O)Nc1ncc(-c2cncc(F)c2)nc1C [Compound I2] | 3 | 0 | 4 | 4 | 2 | 0 | 0 | 0 | 0 | 0 | 1 | 0 |
| CC(=O)Nc1ncc(-c2cncc(F)c2)nc1C(F)(F)F [Compound I3, 2-(acetylamino)-3-trifluoromethyl-5-(5-fluoropyrid-3-yl)pyrazine] | 4 | 1 | 4 | 3 | 3 | 0 | 1 | 1 | 1 | 0 | 3 | 0 |
| CC(=O)N(C(C)=O)c1ncc(-c2cncc(F)c2)nc1C(F)(F)F [Compound I4, 2-(diacetylamino)-3-trifluoromethyl-5-(5-fluoropyrid-3-yl)pyrazine] | 4 | 0 | 4 | 3 | 3 | 3 | 1 | 1 | 0 | 0 | 2 | 0 |
| CC(=O)N(C(C)=O)c1ncc(-c2cncc(F)c2)nc1C [Compound I5, 2-(diacetylamino)-3-methyl-5-(5-fluoropyrid-3-yl)pyrazine] | 3 | 1 | – | 2 | 2 | 0 | 0 | 1 | 0 | 1 | 1 | 0 |
| CC(=O)N(C)c1ncc(-c2cncc(F)c2)nc1C [Compound I6] | 5 | 1 | 5 | 4 | 3 | 0 | 1 | 2 | 1 | 0 | 3 | 0 |
| CC(=O)N(C(C)=O)c1ncc(-c2cncnc2)nc1C(F)(F)F [Compound I8] | 4 | 1 | 5 | 4 | 2 | 0 | 0 | 1 | 1 | 1 | 2 | 0 |
| CC(=O)Nc1ncc(-c2cncc(F)c2)nc1C [Compound I9] | 4 | 0 | 3 | 2 | 1 | 0 | 0 | 0 | 0 | 0 | 2 | 0 |
| COCCC(=O)Nc1ncc(-c2cncc(F)c2)nc1C [Compound I10] | 2 | 0 | 2 | 3 | 2 | 0 | 0 | 0 | 0 | 0 | 1 | 0 |
| COCCC(=O)N(C(=O)CCOC)c1ncc(-c2cncc(F)c2)nc1C(F)(F)F [Compound I11] | 4 | 1 | 5 | 5 | 3 | 1 | 0 | 1 | 0 | 0 | 4 | 0 |
| CCC(=O)N(C(=O)CC)c1ncc(-c2cncnc2)nc1C(F)(F)F [Compound I12] | 3 | 1 | 4 | 3 | 2 | 0 | 1 | 1 | 1 | 0 | 2 | 0 |
